Measured values as given in US12667584B2, “Adenosine analog and its use in regulating the circadian clock” (NATIONAL INSTITUTE OF BIOLOGICAL SCIENCES, BEIJING, priority 2017, dated 2026).

Legend:
[1] = molecular target: T1, CDK9 (Homo sapiens, UniProt P50750); experiment: Biotinylated compounds pull-down in U2OS cell lysate, CDK9; format: binding
T1 construct: Every 10^8 unsynchronized U2OS cells were collected, homogenized into 2 ml lysis buffer; endogenous in cells; host or cells: U2OS
Protocol: (§1) Biotinylated Compounds Pull-down, SPR analysis and Immunoprecipitation: The interaction between biotinylated compounds and their target proteins were proceeded as follow. Every 10^8 unsynchronized U2OS cells were collected, homogenized into 2 ml lysis buffer (25 mM MOPS pH7.2, 15 mM EGTA, 15 mM MgCl2, 1 mM DTT, 60 mM β-glycerophosphate, 1 mM Na3VO4, 1 mM NaF, 1 mM phenyl phosphate, Complete Protease Inhibitor Cocktail), and sonicated 6 times for 30 s at 4° C. with a Diagenode bioruptor. After sonication, NP-40 (final 0.5%) was added, incubated 15 min on ice, centrifuged at full speed for 20 min at 4° C. The resultant supernatant was firstly incubated with Pentostatin (final concentration at 5 μg/ml) for 2 h at 4° C. with rotation, and then split into 4 groups. 200 pmol cordycepin, 200 pmol DRB, and DMSO (2 groups, final 0.1%) was added respectively and further incubated for 1 h. […] The eluted protein was analyzed with western blot. The binding affinity of cordycepin against the RUVBL2 protein was measured via SPR technology using a Biacore T200 instrument (GE Healthcare) at room temperature. […] The binding kinetics and binding affinity of cordycepin against the RUVBL2 protein were determined with BIA evaluation software (GE healthcare). […] Immunoprecipitated protein complex was then washed 3 times with IP lysis buffer, boiled and analyzed with western blot. […]

[2] = molecular target: Ruvbl2 (Homo sapiens, UniProt Q9Y230); experiment: Biotinylated compounds pull-down in U2OS cell lysate, RUVBL2; format: binding; set-up: Every 10^8 unsynchronized U2OS cells were collected, homogenized into 2 ml lysis buffer; endogenous in cells; host or cells: U2OS; conditions: competed by biotin free compound
Sequence of Ruvbl2 (Q9Y230 whole entry): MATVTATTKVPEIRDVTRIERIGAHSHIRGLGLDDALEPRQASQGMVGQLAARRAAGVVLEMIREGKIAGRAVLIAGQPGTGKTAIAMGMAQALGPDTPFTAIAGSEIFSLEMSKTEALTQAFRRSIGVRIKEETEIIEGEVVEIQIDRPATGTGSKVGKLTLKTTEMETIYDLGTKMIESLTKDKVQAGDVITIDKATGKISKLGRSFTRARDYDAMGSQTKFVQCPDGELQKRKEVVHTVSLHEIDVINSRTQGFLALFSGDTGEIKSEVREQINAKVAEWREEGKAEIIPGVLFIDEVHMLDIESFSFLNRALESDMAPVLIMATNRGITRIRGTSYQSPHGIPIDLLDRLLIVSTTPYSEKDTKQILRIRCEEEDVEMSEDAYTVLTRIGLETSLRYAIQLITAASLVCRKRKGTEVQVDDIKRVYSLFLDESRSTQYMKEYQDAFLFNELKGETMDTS
Protocol: as §1

T1 sequence (P50750 whole entry): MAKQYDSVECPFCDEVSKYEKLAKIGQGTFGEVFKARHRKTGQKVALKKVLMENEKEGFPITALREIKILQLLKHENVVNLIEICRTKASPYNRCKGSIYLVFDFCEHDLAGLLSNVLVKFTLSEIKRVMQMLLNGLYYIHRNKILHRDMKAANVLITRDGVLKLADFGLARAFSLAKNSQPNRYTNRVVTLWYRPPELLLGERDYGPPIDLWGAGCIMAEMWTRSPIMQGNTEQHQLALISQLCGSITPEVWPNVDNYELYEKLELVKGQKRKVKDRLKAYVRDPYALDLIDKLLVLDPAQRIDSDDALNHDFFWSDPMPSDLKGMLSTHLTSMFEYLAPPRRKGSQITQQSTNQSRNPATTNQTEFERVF
T1 sequence (O60563 whole entry partner): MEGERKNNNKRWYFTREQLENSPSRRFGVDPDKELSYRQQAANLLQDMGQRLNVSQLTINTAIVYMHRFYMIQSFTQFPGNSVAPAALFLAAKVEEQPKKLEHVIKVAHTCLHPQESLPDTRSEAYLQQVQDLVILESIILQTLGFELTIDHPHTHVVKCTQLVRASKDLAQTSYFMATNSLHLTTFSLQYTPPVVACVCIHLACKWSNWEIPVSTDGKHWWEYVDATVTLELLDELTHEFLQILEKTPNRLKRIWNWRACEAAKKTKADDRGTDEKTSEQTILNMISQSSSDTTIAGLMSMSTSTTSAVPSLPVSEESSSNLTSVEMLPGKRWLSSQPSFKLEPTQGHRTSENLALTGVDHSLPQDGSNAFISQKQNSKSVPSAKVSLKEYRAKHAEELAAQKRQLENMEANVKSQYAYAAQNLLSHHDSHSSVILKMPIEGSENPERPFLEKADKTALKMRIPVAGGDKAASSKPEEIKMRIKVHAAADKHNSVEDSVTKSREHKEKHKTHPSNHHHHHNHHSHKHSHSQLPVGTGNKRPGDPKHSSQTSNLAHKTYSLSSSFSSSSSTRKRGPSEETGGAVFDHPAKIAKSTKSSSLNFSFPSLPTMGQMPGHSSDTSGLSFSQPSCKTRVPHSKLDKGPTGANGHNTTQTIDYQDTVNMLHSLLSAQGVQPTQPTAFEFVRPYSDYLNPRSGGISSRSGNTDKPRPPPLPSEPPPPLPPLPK

O=C1N[C@H]2[C@H](CS[C@H]2CCCCC(=O)OC[C@H]2O[C@@H](n3cnc4cc(Cl)c(Cl)cc43)[C@H](O)[C@@H]2O)N1 [biotin-DRB, 5,6-dichloro-1-(5′-O-biotinyl-β-D-ribofuranosyl)-benzimidazole]
pull-down of CDK9 [1]: successfully isolated
pull-down of Ruvbl2 [2]: can pull-down
